# Test results as given in a flash point compilation (Sun et al. 2020).
row,Structure (SMILES),flash point
1,CCCCCCCC(C)C [2-methylnonane],38 °C
2,CCCC(C)C [2-methylpentane],-32 °C
3,CCCC(C)C(=O)O (stereo not drawn) [2-methylpentanoicacid],91 °C
4,CC(C)C=O [2-methylpropanal],-19 °C
5,CC(C)C(=O)O [2-methylpropanoicacid],59 °C
6,CC1CCCO1 (stereo not drawn) [2-methyltetrahydrofuran],-12 °C
7,Cc1cccs1 [2-methylthiophene],8 °C
8,CCCC(C)[N+](=O)[O-] (stereo not drawn) [2-nitropentane],46 °C
9,CCCCCCCC(C)O (stereo not drawn) [2-nonanol],82 °C
10,CC#CCCCCCC [2-nonyne],39 °C
11,C1=CC2CCC1C2 [2-norbornene],-14 °C
12,CCCCCCC(C)=O [2-octanone],56 °C
13,CCCC(C)S (stereo not drawn) [2-pentanethiol],15 °C
14,CCCC(C)O (stereo not drawn) [2-pentanol],34 °C
15,CC#CCC [2-pentyne],-30 °C
16,OCCc1ccccc1 [2-phenylethanol],102 °C
17,CC(=O)OCCc1ccccc1 [2-phenylethylacetate],102 °C
18,CCC(=O)OCCc1ccccc1 [2-phenylethylpropionate],113 °C
19,Cc1ccccn1 [2-picoline],26 °C
20,CCCc1ccccc1N [2-propylaniline],97 °C
21,CCCc1cccs1 [2-propylthiophene],32 °C
22,C#CCO [2-propyn-1-ol],36 °C

row,Structure (SMILES),flash point
1,CCC(C)c1ccccc1N (stereo not drawn) [2-sec-butylaniline],102 °C
2,CC(C)(C)C1CCCCC1=O (stereo not drawn) [2-tert-butylcyclohexanone],72 °C
3,CC(C)(C)c1ccco1 [2-tert-butylfuran],7 °C
4,CC(C)(C)c1ccccc1O [2-tert-butylphenol],102 °C
5,CCCCCCCCCC(C)O (stereo not drawn) [2-undecanol],107 °C
6,"CCC(C)C(C)(C)CC (stereo not drawn) [3,3,4-trimethylhexane]",15 °C
7,"CCCC(C)C(C)CC (stereo not drawn) [3,4-dimethylheptane]",15 °C
8,"CC(C)=CCCC(C)CC=O (stereo not drawn) [3,7-dimethyl-6-octenal]",78 °C
9,CCCC(Br)CC (stereo not drawn) [3-bromohexane],40 °C
10,CCC(Br)CC [3-bromopentane],19 °C
11,Cc1cccc(Br)c1 [3-bromotoluene],75 °C
12,C=CCCO [3-buten-1-ol],32 °C
13,C=CC(C)O (stereo not drawn) [3-buten-2-ol],20 °C
14,OCCCCl [3-chloro-1-propanol],73 °C
15,C=C(C)CCl [3-chloro-2-methyl-1-propene],-12 °C
16,C=CCCl [3-chloropropene],-28 °C
17,"CCC(CC)C(C)(C)C [3-ethyl-2,2-dimethylpentane]",13 °C
18,"CCC(C(C)C)C(C)C [3-ethyl-2,4-dimethylpentane]",15 °C
19,CCC(CC)C(C)C [3-ethyl-2-methylpentane],3 °C
20,CC=C(CC)CC [3-ethyl-2-pentene],-6 °C
21,CCCCC(C)(CC)CC [3-ethyl-3-methylheptane],41 °C
22,CCC(C)CC(CC)CC (stereo not drawn) [3-ethyl-5-methylheptane],31 °C

row,Structure (SMILES),flash point
1,CCCC(CC)CC [3-ethylhexane],5 °C
2,CCc1cccc(O)c1 [3-ethylphenol],94 °C
3,CCc1ccsc1 [3-ethylthiophene],23 °C
4,Cc1cccc(F)c1 [3-fluorotoluene],12 °C
5,CCCCC(=O)CC [3-heptanone],38 °C
6,CCC#CCC [3-hexyne],-14 °C
7,C=CCI [3-iodo-1-propene],16 °C
8,CCCC(I)CC (stereo not drawn) [3-iodohexane],55 °C
9,CC(C)c1cccc(O)c1 [3-isopropylphenol],104 °C
10,C=CC(C)CCC (stereo not drawn) [3-methyl-1-hexene],-18 °C
11,C=CC(C)CC (stereo not drawn) [3-methyl-1-pentene],-33 °C
12,CC(C)C(C)S (stereo not drawn) [3-methyl-2-butanethiol],9 °C
13,CC(C)C(C)O (stereo not drawn) [3-methyl-2-butanol],27 °C
14,Cc1cccc(N)c1 [3-methylaniline],86 °C
15,CC(C)CC(=O)O [3-methylbutanoicacid],74 °C
16,CC(C)CC(=O)OC(=O)CC(C)C [3-methylbutanoicanhydride],91 °C
17,CC1CCCC(=O)C1 (stereo not drawn) [3-methylcyclohexanone],48 °C
18,CCCCC(C)CC (stereo not drawn) [3-methylheptane],6 °C
19,CCCC(C)CC (stereo not drawn) [3-methylhexane],-15 °C
20,CCCC(C)CC(=O)O (stereo not drawn) [3-methylhexanoicacid],103 °C
21,C=Cc1cccc(C)c1 [3-methylstyrene],48 °C
22,Cc1ccsc1 [3-methylthiophene],11 °C

row,Structure (SMILES),flash point
1,CCCCCCC(O)CC (stereo not drawn) [3-nonanol],79 °C
2,CCC#CCCCCC [3-nonyne],38 °C
3,CCCCCC(O)CC (stereo not drawn) [3-octanol],68 °C
4,CC(=O)OCCCc1ccccc1 [3-phenylpropylacetate],113 °C
5,CCCCCCCCC(=O)CC [3-undecanone],89 °C
6,C=CCCBr [4-bromo-1-butene],9 °C
7,CCCCCCC(=O)CCC [4-decanone],71 °C
8,CCCC#CCCCCC [4-decyne],52 °C
9,CCc1ccc(N)cc1 [4-ethylaniline],97 °C
10,CCCC(CC)CCC [4-ethylheptane],15 °C
11,"C=CC=C(C)C [4-methyl-1,3-pentadiene]",-18 °C
12,C=CCC(C)CCC (stereo not drawn) [4-methyl-1-heptene],2 °C
13,C=CCC(C)CC (stereo not drawn) [4-methyl-1-hexene],-15 °C
14,CC(=O)CC(C)C [4-methyl-2-pentanone],14 °C
15,"CCN(CC)c1ccccc1 [N,N-diethylaniline]",88 °C
16,"CN(C)c1ccccc1 [N,N-dimethylaniline]",75 °C
17,CCNC1CCCCC1 [N-ethylcyclohexanamine],45 °C
18,CN(CCO)CCO [N-methyldiethanolamine],137 °C
19,CC(=O)OC(C)=O [aceticanhydride],49 °C
20,C=CC=O [acrolein],-19 °C
21,C=CC#N [acrylonitrile],-5 °C
22,C=CCO [allylalcohol],22 °C

# Further lines, results first:
row,flash point,Structure (SMILES)
1,51 °C,CC(C)CCCO [4-methyl-1-pentanol]
2,-24 °C,C#CCC(C)C [4-methyl-1-pentyne]
3,75 °C,C=CC1(C)CCC(=O)O1 (stereo not drawn) [4-methyl-4-vinylbutyrolactone]
4,48 °C,CC1CCC(=O)CC1 [4-methylcyclohexanone]
5,103 °C,CCC(C)CCC(=O)O (stereo not drawn) [4-methylhexanoicacid]
6,38 °C,CCCCCC(C)CCC (stereo not drawn) [4-methylnonane]
7,22 °C,CCCCC(C)CCC (stereo not drawn) [4-methyloctane]
8,97 °C,CC(C)CCC(=O)O [4-methylpentanoicacid]
9,46 °C,C=Cc1ccc(C)cc1 [4-methylstyrene]
10,62 °C,CCCCCC(=O)CCC [4-nonanone]
11,35 °C,CCCC#CCCCC [4-nonyne]
12,38 °C,Cc1ccncc1 [4-picoline]
13,86 °C,CCCC1CCC(=O)CC1 [4-propylcyclohexanone]
14,61 °C,CSCCC=O [4-thiapentanal]
15,92 °C,CCCCCCCC(=O)CCC [4-undecanone]
16,15 °C,C#CCCCCl [5-chloro-1-pentyne]
17,-10 °C,C=CCCC(C)C [5-methyl-1-hexene]
18,43 °C,CCC(=O)CC(C)CC (stereo not drawn) [5-methyl-3-heptanone]
19,37 °C,CCCCC(C)CCCC [5-methylnonane]
20,60 °C,CCCCC(=O)CCCC [5-nonanone]

row,flash point,Structure (SMILES)
1,88 °C,CCCCCC(=O)CCCCC [6-undecanone]
2,18 °C,C=CCCCCC(C)C [7-methyl-1-octene]
3,119 °C,C=CCCCCCCCCO [9-decen-1-ol]
4,100 °C,CCCCCCC(C)c1ccccc1 (stereo not drawn) [(1-methylheptyl)benzene]
5,78 °C,CCCNCCO [(2-hydroxyethyl)propylamine]
6,65 °C,"CCN(C=O)CC [N,N-diethylformamide]"
7,75 °C,"CC(C)N(C=O)C(C)C [N,N-diisopropylformamide]"
8,32 °C,"CN(C)CCCN [N,N-dimethyl-1,3-propanediamine]"
9,66 °C,"CC(=O)N(C)C [N,N-dimethylacetamide]"
10,115 °C,CCCCNC(C)=O [N-butylacetamide]
11,107 °C,CCCCNc1ccccc1 [N-butylaniline]
12,-23 °C,CCN(C)CC [N-ethyl-N-methylethanamine]
13,106 °C,CCNC(C)=O [N-ethylacetamide]
14,88 °C,CC(C)(C)Nc1ccccc1 [N-tert-butylaniline]
15,54 °C,C=CC(=O)O [acrylicacid]
16,12 °C,C=CCC1CCCC1 [allylcyclopentane]
17,-20 °C,C=CCOCC [allylethylether]
18,16 °C,C=CCSCC [allylethylsulfide]
19,37 °C,C=CCOC(=O)C(=C)C [allylmethacrylate]
20,25 °C,C=CCOC(=O)CC [allylpropanoate]
